# Measured values taken from US20130225508A1, “PEPTIDE CAPABLE OF BINDING TO IMMUNOGLOBULIN” (priority 2010, published 2013).
# System: adjuvant-induced arthritis
# Assay: Adjuvant arthritis rat model
# Assay type: in vivo, Lewis/CrlCrlj rats
# Design: key to Redness scores (left hind-limb) / Redness scores (right hind-limb): 0 = no redness, 4 = severe redness; key to Scores of swelling in the instep (left hind-limb) / Scores of swelling in the instep (right hind-limb): 0 = no swelling, 4 = severe swelling; key to Scores of swelling in knuckle joints (left hind-limb) / Scores of swelling in knuckle joints (right hind-limb): 0 = no swelling, 4 = swelling of all the digits
# Description: Male Lewis/CrlCrlj (SPF) rats were used to investigate the arthritis suppressing effect of a peptide of the present invention on adjuvant-induced arthritis. Forty-five rats were purchased from Charles River Laboratories Japan, Inc., and fed normal chow and allowed to acclimate for 7 days before used (the range of body weights was from 193.3 to 218.3 g at the beginning of use).
# In an agate motor, dead tubercle bacilli (Mycobacterium butyricum; Lot No. 0260570, Difco) were pulverized. Then, liquid paraffin was added in small amounts to spread the pulverized bacilli well, so as to allow them to be emulsified at 1.0 mg/mL. The resultant emulsion was used after verification to ensure that the pulverized bacilli had been allowed to be finely emulsified, using an NM MICRONIZER (Nippon Seiki Co., Ltd.).
# A right hind-limb of the respective rats was exposed, and 100 μL of the emulsion was intradermally injected once into a footpad of the right hind-limb using a 25G-needle attached syringe, to cause arthritis (day 0).
# Each of the groups was comprised of 5 animals.
# Arthritis was evaluated only for the hind-limbs, based on the criteria described below:
# Score 0: no swelling Score 1: swelling of not more than two digits Score 2: swelling of three digits Score 3: swelling of four digits Score 4: swelling of all the digits
# Score 0: no swelling Score 1: mild swelling Score 2: modest swelling Score 3: rather severe swelling Score 4: severe swelling
# Score 0: no redness Score 1: mild redness Score 2: modest redness Score 3: rather severe redness Score 4: severe redness (iii) Measurement of Foot Volumes of Left And Right Hind-Limbs
# Measurement was performed using a plethysmometer (UNICOM TK105). The increasing rate foot volume (percentage of paw swelling, paw swelling %) was calculated by the following formula:
# Percent paw swelling (%)=[(Vt−Vo)/Vo]×100
# In addition, in these examinations, the percent change of edema relative to day 10 post-adjuvant was calculated, in order to assess the effect of treatment with the test substances.
# Data are expressed by mean±standard error. Since the uniformity of variance was not verified in testing between the negative and the positive control groups, testing for significant difference was performed by Aspin-Welch t-test. Since the uniformity of variance was not verified in testing for significant differences of the respective test-substance administered groups relative to the positive control group, assessment was performed by Dunnett's multiple comparison test after Kruskal-Wallis testing, using non-parametric procedures. Differences were considered to be statistically significant at p values of less than 0.05.
# [1] = Day 0 post-adjuvant, 0.15 mg/kg oral from day 10
# [2] = Day 0 post-adjuvant, 0.15 mg/kg oral, pre-administered group
# [3] = Day 3 post-adjuvant, 0.15 mg/kg oral from day 10
# [4] = Day 3 post-adjuvant, 0.15 mg/kg oral, pre-administered group
# [5] = Day 7 post-adjuvant, 0.15 mg/kg oral from day 10
# [6] = Day 7 post-adjuvant, 0.15 mg/kg oral, pre-administered group
# [7] = Day 10 post-adjuvant, 0.15 mg/kg oral from day 10
# [8] = Day 10 post-adjuvant, 0.15 mg/kg oral, pre-administered group
# [9] = Day 14 post-adjuvant, 0.15 mg/kg oral from day 10
# [10] = Day 14 post-adjuvant, 0.15 mg/kg oral, pre-administered group
# [11] = Day 17 post-adjuvant, 0.15 mg/kg oral from day 10
# [12] = Day 17 post-adjuvant, 0.15 mg/kg oral, pre-administered group
# [13] = Day 21 post-adjuvant, 0.15 mg/kg oral from day 10
# [14] = Day 21 post-adjuvant, 0.15 mg/kg oral, pre-administered group
smiles,measurement,setting,value
CN(Cc1cnc2nc(N)nc(N)c2n1)c1ccc(C(=O)N[C@@H](CCC(=O)O)C(=O)O)cc1 [Methotrexate],Redness scores (left hind-limb),[1],0.0 ± 0.0
same,Redness scores (right hind-limb),[1],0.0 ± 0.0
same,Scores of swelling in knuckle joints (left hind-limb),[1],0.0 ± 0.0
same,Scores of swelling in knuckle joints (right hind-limb),[1],0.0 ± 0.0
same,Scores of swelling in the instep (left hind-limb),[1],0.0 ± 0.0
same,Scores of swelling in the instep (right hind-limb),[1],0.0 ± 0.0
same,Total scores (left hind-limb),[1],0.0 ± 0.0
same,Total scores (right hind-limb),[1],0.0 ± 0.0
same,Redness scores (left hind-limb),[2],0.0 ± 0.0
same,Redness scores (right hind-limb),[2],0.0 ± 0.0
same,Scores of swelling in knuckle joints (left hind-limb),[2],0.0 ± 0.0
same,Scores of swelling in knuckle joints (right hind-limb),[2],0.0 ± 0.0
same,Scores of swelling in the instep (left hind-limb),[2],0.0 ± 0.0
same,Scores of swelling in the instep (right hind-limb),[2],0.0 ± 0.0
same,Total scores (left hind-limb),[2],0.0 ± 0.0
same,Total scores (right hind-limb),[2],0.0 ± 0.0
same,Redness scores (left hind-limb),[3],0.0 ± 0.0
same,Redness scores (right hind-limb),[3],0.0 ± 0.0
same,Scores of swelling in knuckle joints (left hind-limb),[3],0.0 ± 0.0
same,Scores of swelling in knuckle joints (right hind-limb),[3],0.0 ± 0.0
same,Scores of swelling in the instep (left hind-limb),[3],0.0 ± 0.0
same,Scores of swelling in the instep (right hind-limb),[3],0.0 ± 0.0
same,Total scores (left hind-limb),[3],0.0 ± 0.0
same,Total scores (right hind-limb),[3],0.0 ± 0.0
same,Redness scores (left hind-limb),[4],0.0 ± 0.0
same,Redness scores (right hind-limb),[4],0.0 ± 0.0
same,Scores of swelling in knuckle joints (left hind-limb),[4],0.0 ± 0.0
same,Scores of swelling in knuckle joints (right hind-limb),[4],0.0 ± 0.0
same,Scores of swelling in the instep (left hind-limb),[4],0.0 ± 0.0
same,Scores of swelling in the instep (right hind-limb),[4],0.0 ± 0.0
same,Total scores (left hind-limb),[4],0.0 ± 0.0
same,Total scores (right hind-limb),[4],0.0 ± 0.0
same,Redness scores (left hind-limb),[5],0.0 ± 0.0
same,Redness scores (right hind-limb),[5],0.4 ± 0.2
same,Scores of swelling in knuckle joints (left hind-limb),[5],0.4 ± 0.2
same,Scores of swelling in knuckle joints (right hind-limb),[5],0.6 ± 0.2
same,Scores of swelling in the instep (left hind-limb),[5],0.0 ± 0.0
same,Scores of swelling in the instep (right hind-limb),[5],1.2 ± 0.2
same,Total scores (left hind-limb),[5],0.4 ± 0.5
same,Total scores (right hind-limb),[5],2.2 ± 0.8
same,Redness scores (left hind-limb),[6],0.0 ± 0.0
same,Redness scores (right hind-limb),[6],0.2 ± 0.2
same,Scores of swelling in knuckle joints (left hind-limb),[6],0.0 ± 0.0
same,Scores of swelling in knuckle joints (right hind-limb),[6],0.4 ± 0.2
same,Scores of swelling in the instep (left hind-limb),[6],0.0 ± 0.0
same,Scores of swelling in the instep (right hind-limb),[6],0.0 ± 0.0
same,Total scores (left hind-limb),[6],0.0 ± 0.0
same,Total scores (right hind-limb),[6],0.6 ± 0.4
same,Redness scores (left hind-limb),[7],0.4 ± 0.2
same,Redness scores (right hind-limb),[7],1.4 ± 0.4
same,Scores of swelling in knuckle joints (left hind-limb),[7],0.6 ± 0.2
same,Scores of swelling in knuckle joints (right hind-limb),[7],1.6 ± 0.4
same,Scores of swelling in the instep (left hind-limb),[7],0.6 ± 0.2
same,Scores of swelling in the instep (right hind-limb),[7],1.4 ± 0.4
same,Total scores (left hind-limb),[7],1.6 ± 0.5
same,Total scores (right hind-limb),[7],4.4 ± 1.5
same,Redness scores (left hind-limb),[8],0.0 ± 0.0
same,Redness scores (right hind-limb),[8],0.0 ± 0.0
same,Scores of swelling in knuckle joints (left hind-limb),[8],0.2 ± 0.2
same,Scores of swelling in knuckle joints (right hind-limb),[8],0.2 ± 0.2
same,Scores of swelling in the instep (left hind-limb),[8],0.0 ± 0.0
same,Scores of swelling in the instep (right hind-limb),[8],0.4 ± 0.2
same,Total scores (left hind-limb),[8],0.2 ± 0.2
same,Total scores (right hind-limb),[8],0.6 ± 0.4
same,Redness scores (left hind-limb),[9],0.2 ± 0.2
same,Redness scores (right hind-limb),[9],1.0 ± 0.3
same,Scores of swelling in knuckle joints (left hind-limb),[9],0.8 ± 0.2
same,Scores of swelling in knuckle joints (right hind-limb),[9],1.2 ± 0.2
same,Scores of swelling in the instep (left hind-limb),[9],0.2 ± 0.2
same,Scores of swelling in the instep (right hind-limb),[9],1.4 ± 0.4
same,Total scores (left hind-limb),[9],1.2 ± 0.6
same,Total scores (right hind-limb),[9],3.6 ± 1.1
same,Redness scores (left hind-limb),[10],0.0 ± 0.0
same,Redness scores (right hind-limb),[10],0.2 ± 0.2
same,Scores of swelling in knuckle joints (left hind-limb),[10],0.4 ± 0.2
same,Scores of swelling in knuckle joints (right hind-limb),[10],0.8 ± 0.2
same,Scores of swelling in the instep (left hind-limb),[10],0.0 ± 0.0
same,Scores of swelling in the instep (right hind-limb),[10],0.8 ± 0.2
same,Total scores (left hind-limb),[10],0.4 ± 0.2
same,Total scores (right hind-limb),[10],1.8 ± 0.2
same,Redness scores (left hind-limb),[11],0.6 ± 0.4
same,Redness scores (right hind-limb),[11],1.2 ± 0.2
same,Scores of swelling in knuckle joints (left hind-limb),[11],0.4 ± 0.2
same,Scores of swelling in knuckle joints (right hind-limb),[11],0.6 ± 0.2
same,Scores of swelling in the instep (left hind-limb),[11],0.8 ± 0.6
same,Scores of swelling in the instep (right hind-limb),[11],2.0 ± 0.4
same,Total scores (left hind-limb),[11],1.8 ± 1.4
same,Total scores (right hind-limb),[11],3.8 ± 0.9
same,Redness scores (left hind-limb),[12],0.4 ± 0.4
same,Redness scores (right hind-limb),[12],0.8 ± 0.4
same,Scores of swelling in knuckle joints (left hind-limb),[12],0.6 ± 0.2
same,Scores of swelling in knuckle joints (right hind-limb),[12],1.0 ± 0.3
same,Scores of swelling in the instep (left hind-limb),[12],0.4 ± 0.2
same,Scores of swelling in the instep (right hind-limb),[12],1.4 ± 0.2
same,Total scores (left hind-limb),[12],1.4 ± 0.7
same,Total scores (right hind-limb),[12],3.2 ± 0.8
same,Redness scores (left hind-limb),[13],0.6 ± 0.6
same,Redness scores (right hind-limb),[13],1.2 ± 0.5
same,Scores of swelling in knuckle joints (left hind-limb),[13],0.6 ± 0.6
same,Scores of swelling in knuckle joints (right hind-limb),[13],0.8 ± 0.6
same,Scores of swelling in the instep (left hind-limb),[13],0.6 ± 0.6
same,Scores of swelling in the instep (right hind-limb),[13],2.2 ± 0.6
same,Total scores (left hind-limb),[13],1.8 ± 2.3
same,Total scores (right hind-limb),[13],4.2 ± 2.0
same,Redness scores (left hind-limb),[14],0.2 ± 0.2
same,Redness scores (right hind-limb),[14],0.8 ± 0.2
same,Scores of swelling in knuckle joints (left hind-limb),[14],0.4 ± 0.2
same,Scores of swelling in knuckle joints (right hind-limb),[14],0.8 ± 0.2
same,Scores of swelling in the instep (left hind-limb),[14],0.2 ± 0.2
same,Scores of swelling in the instep (right hind-limb),[14],1.2 ± 0.4
same,Total scores (left hind-limb),[14],0.8 ± 0.6
same,Total scores (right hind-limb),[14],2.8 ± 0.6
